This is an account of results in patent publication US20230118911A1, “PROTEOLYSIS TARGETING CHIMERA (PROTAC) FOR DEGRADATION OF AURORA A-KINASE” (Julius-Maximilians-Universitaet Wuerzburg, priority 2020, published 2023).

In assay [1] the target is T1, Aurora-A (Homo sapiens, UniProt O14965).
T1 sequence (O14965 1-403): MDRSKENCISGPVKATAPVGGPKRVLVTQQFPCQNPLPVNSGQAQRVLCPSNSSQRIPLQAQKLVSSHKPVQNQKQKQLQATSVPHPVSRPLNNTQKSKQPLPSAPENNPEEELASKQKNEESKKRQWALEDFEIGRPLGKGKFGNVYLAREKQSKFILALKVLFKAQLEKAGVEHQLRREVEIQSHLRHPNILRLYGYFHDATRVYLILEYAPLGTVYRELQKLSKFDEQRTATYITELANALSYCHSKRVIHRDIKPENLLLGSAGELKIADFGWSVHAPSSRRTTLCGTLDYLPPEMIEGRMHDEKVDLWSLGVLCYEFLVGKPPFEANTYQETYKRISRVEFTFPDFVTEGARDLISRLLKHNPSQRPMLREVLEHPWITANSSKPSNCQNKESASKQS
Kind of assay: Immunoblot of endogenous Aurora-A in MV4-11 cells after a single dose of degrader. The assay is classed as cell-based. More on the design: resulting in degradation of endogenous Aurora-A; endogenous in cells; host or cells: MV4-11. On the procedure: (§1) Then, the cells were lysed in RIPA lysis buffer (50 mM HEPES pH 7.9, 140 mM NaCl, 1 mM EDTA, 1% Triton X-100, 0.1% SDS, 0.1% sodium deoxycholate) containing protease and phosphatase inhibitors (Sigma) and incubated for 20 minutes at 4° C. in head-over-tail. Lysates were cleared by centrifugation. Protein quantification was done using BCA assay and equal amounts of proteins were separated by BisTris-PAGE and transferred to PVDF membranes (Millipore). The membranes were blocked with 5% (w/v) nonfat dry milk dissolved in TBS-T (20 mM Tris/HCl, pH 7.5, 150 mM NaCl, and 0.1% (v/v) Tween 20) at RT for 1 hour and then incubated with the primary antibody overnight at 4° C. Visualization was done with HRP-labeled secondary antibodies and detected using Chemiluminescent HRP substrate (Millipore) in LAS3000 or LAS4000 Mini (Fuji). The signal was quantified using ImageJ (version 1.52q) or Image Studio Lite (LI-COR Biosciences, Version 5.2.5). […] Error bars represent standard deviations of four biological replicate experiments.
(In general: A western blot detects proteins with antibodies after separation by electrophoresis.)

In assay [2] the test system is MV4-11 cells. The experiment in a line: alamarBlue cell viability assay. The assay is classed as cell-based. The settings on record: Homo sapiens, 1 μM (refreshed every 24 h), 72 hours, read-out: viable cells compared to control cells. Here is the method: The alamarBlue assay (Thermo Fisher Scientific) was performed according to manufacturer's instruction using HS Cell Viability Reagent. The fluorescence was measured in Tecan Infinite-200 using a fluorescence excitation wavelength of 550 and an emission of 600 nm.
Background: The colour change of resazurin is a common sign of viable cells or microbes.

In assay [3] the test system is MV4-11 cells. The experiment in a line: Annexin-PI FACS apoptosis assay in MV4-11 cells. The assay is classed as cell-based, human. The note with it: 0.5 μM, 72 hours.
Experimental: (§2) For Annexin-PI FACS, the medium in which the cells were cultured was combined with the cells.
(§3) The cells were washed once with ice-cold PBS, resuspended in 100 μl Annexin V Binding buffer (10 mM HEPES pH 7.4, 140 mM NaCl, 2.5 mM CaCl2)) with 2 μl of Annexin V/Pacific Blue dye and incubated for 15 minutes in the dark at room temperature. 400 μl Annexin V Binding buffer with propidium iodide (18.5 μM) was added and the samples were stored cold and in the dark until analysis.
The subject of a further assay is IMR5 cells. The experiment in a line: Annexin-PI FACS apoptosis assay in IMR5 cells with or without Aurora-A T217D expression. The settings on record: 0.5 μM, 72 hours, doxycycline-induced Aurora-A T217D vs EtOH control.
Assay [4] has as its target T1, Aurora-A. Kind of assay: Immunoblot of endogenous Aurora-A, MV4-11 cells treated with various concentrations for 6 hours. The assay is classed as cell-based. Further details: resulting in degradation of endogenous Aurora-A; endogenous in cells; host or cells: MV4-11. Here is the method:
as §1
Afterwards, cells were lysed in RIPA lysis buffer (50 mM HEPES pH 7.9, 140 mM NaCl, 1 mM EDTA, 1% Triton X-100, 0.1% SDS, 0.1% sodium deoxycholate) containing protease and phosphatase inhibitors (Sigma) and incubated for 20 minutes at 4° C. in head-over-tail. Further processing of resulting cell lysates and immunoblotting was performed as described above.

Experimental for IMR5 cells: as §2, §3
Aurora-AT^217D is a functional mutant of Aurora-A. IMR5 cells express Aurora-A^T217D upon incubation with doxycycline (Dox) but not upon incubation with ethanol (control-EtOH).

`COc1cc(Nc2ncc3c(n2)-c2ccc(Cl)cc2C(c2c(F)cccc2OC)=NC3)ccc1C(=O)NCCOCCOCCC(=O)N[C@H](C(=O)N1C[C@H](O)C[C@H]1C(=O)NCc1ccc(-c2scnc2C)cc1)C(C)(C)C` [JB160, VHL-PEG2-alisertib]: the Aurora-A steady-state levels entry at Aurora-A [1] (single dose, VHL-ligand-based degraders) was “neither of the VHL-ligand-based degraders JB160 and JB161 reduced Aurora-A steady-state levels”.

For `COc1cc(Nc2ncc3c(n2)-c2ccc(Cl)cc2C(c2c(F)cccc2OC)=NC3)ccc1C(=O)NCCOCCOCCNC(=O)COc1cccc2c1C(=O)N(C1CCC(=O)NC1=O)C2=O` (stereo not drawn) [JB170, thalidomide-PEG2-alisertib], the viability at 1 µM with MV4-11 cells [2] was determined as 32%. In the assay with MV4-11 cells [3], this molecule displayed an Annexin-positive cells of 56%. The “effect of Aurora-A T217D expression on induced apoptosis” value with IMR5 cells was “completely reverted the induction of apoptosis”. On Aurora-A [4] (10 nM), the Aurora-A levels result was “significantly decreased”. At Aurora-A [4] (100 nM and 1 μM), the Aurora-A degradation entry is on record as “almost complete degradation”. Besides, on Aurora-A [4] (high concentrations), the “Hook effect on Aurora-A depleting activity” value is on record as “reversal of the Aurora-A depleting activity was observed”.

In the case of `COc1cc(Nc2ncc3c(n2)-c2ccc(Cl)cc2C(c2c(F)cccc2OC)=NC3)ccc1C(=O)O` [alisertib, reference compound], at Aurora-A [4] (1 μM), the Aurora-A levels entry is recorded as “did not decrease Aurora-A levels, but induced a significant increase”.

Consider thalidomide-PEG3-alisertib [JB158], for which the “reduction of Aurora-A protein level” value at Aurora-A [1] (single dose (0.1 μM, 1 μM), compared to control cells) worked out at 62%.
